Converted amounts (≈) assume the structure as drawn. Structures can show the parent of a compound that is named as a salt. Where two headings read alike, the source gives them in different places. Residues, ends and D or L forms follow the SMILES beside them.
Legend:
[1] = literature value; cited from earlier work
[2] = tested on: cholinergic nerve ends; experiment: Sprouting assay (dendrite length after septum lesion); format: in vivo, rat; details: rats, septum of hippocampus destroyed; 20 mg/per kg bodyweight per day over at least 15 days
Protocol: The sprouting of nerve cells is determined by the length of the dendrites. According to the present invention, the influence of the substances used according to the present invention on the sprouting is studied in an in vivo assay.
The septum of the hippocampus of 10 rats was destroyed (see Hagg et al; Exp. Neurol., 101, 303–312). 21 days after the impairment of the hippocampus was unambiguous, as confirmed by a behavioural test, the rats were divided into two groups of 5 rats each. 20 mg/per kg bodyweight per day of the substance used according to the present invention (GFPNH2) was administered to the test group of 5 rats over at least 15 days.
After administration, the animals were killed, and the cholinergic nerve ends were observed by a CAT (choline-acetyl-transferase) immunofluorescence assay under a fluorescence microscope. The length of the dendrites was measured thereby.

[3] = Metabolic stability in rat hepatocytes; format: in vitro ADME; details: male, Wistar, 10^6 cells/ml, analysed during 24 h, read-out: T½ (converted)
Excerpt: Hepatocytes from adult male Wistar rats (IFFA Credo, L'Arbresle, France) were isolated by an in situ liver perfusion using collagenase (purchased from Sigma (St. Louis, Mo., U.S.A), according to a procedure described by Seglen (Preparation of isolated rat liver cell, Methods Cell Biol. 13, 29–83, 1976) and modified by Williams et al. (Rat hepatocyte primary culture. III. Improved dissociation and attachment techniques and the enhancement of survival by culture medium, in vitro 13: 809–817, 1977). After estimation of cell viability by the peripheral refractoriness of intact cells in phase contrast microscopy and the trypan blue test, freshly isolated hepatocytes were washed in basal William's medium E (WME) supplemented with 10% (v/v) fetal calf serum, 70 μM cortisol, 2 mM L-glutamine, 10 mM HEPES buffer, and 4 mM NaOH. They were then plated at a density of 0,5×10^6 cells per 50 mm plastic cell culture dishes in the medium described previously for cell attachment for 6 hours at 37° C. Subsequently, hepatocytes were washed three times in serum- and cholesterol-free medium (SF-WME) containing 4 g/l bovine albumin fraction V (Sigma) as transporter for 7.8 μM of a mixture of free fatty acids (Cheesebeuf M and Padieu P, expression of major liver metabolic function in long-term serum-free rat liver epithelial cell lines. In vitro 20: 780–795, 1984), and then were transferred to the SF-WME supplemented with the various tripeptides of formula (I). For each group of experiments, hepatocytes from three or four livers were used.
Significances are calculated using Student's t-test. Values are expressed as mean±SD.
• Method: (Hepatocytes in suspension) • Plasma sample: Precipitation with trichloracetic acid. • Centrifugation and aliquot of supernatant to HPLC. • […] column: Nucleosil C18 (250×4,6 mm). • Buffer TEAP 0,1%/CH3CN, 1 ml/min • Readings at 210 nm. […]
Each substance of each concentration will be analysed 10 times during 24 h (1 h, 2 h, 4 h, 6 h, 8 h, 10 h, 12 h, 16 h, 20 h, 24 h).

[4] = physchem
[5] = freshly isolated rat hepatocytes (in suspension)

## O=c1ccc2ccccc2o1 [Coumarin]
[1]
  flux rate published by Kansy et al.: 66%

## NCC(=O)N[C@@H](Cc1ccccc1)C(=O)N1CCC[C@H]1C(N)=O [HCl-Gly-Phe-ProNH2, glycyl-L-phenylalanyl-L-prolineamide] (H-Gly-Phe-Pro-NH2)
[2]
  increase of the dendrite length: 8 to 10 μm
PAMPA
  predicted absorption after peroral application (PAMPA classification): weakly absorbed

## C[C@]12CCC(=O)C=C1CC[C@@H]1[C@@H]2[C@@H](O)C[C@@]2(C)[C@H]1CC[C@]2(O)C(=O)CO [Hydrocortisone]
[1]
  flux rate published by Kansy et al.: 52%

## CC[C@H](C)[C@H](NC(=O)CN(CC)CC)C(=O)N1CCC[C@H]1C(N)=O [N,N-Diethyl-Gly-Ile-ProNH2]
[3]; freshly isolated rat hepatocytes
  half-life: 2.8 h
PAMPA
  predicted absorption after peroral application (PAMPA classification): medium to highly absorbed

## CC[C@H](C)[C@H](NC(=O)[C@H]([C@@H](C)CC)N(CC)CC)C(=O)N1CCC[C@H]1C(N)=O [N,N-Diethyl-Ile-Ile-ProNH2, N,N-diethyl-isoleucyl-isoleucyl-prolineamide]
[3]; [5]
  half-life: 3.4 h
PAMPA
  predicted absorption after peroral application (PAMPA classification): medium to highly absorbed
[4]
  solubility: 1000 µg/mL (≈ 2520 µM)

## CCNC(=O)[C@@H]1CCCN1C(=O)[C@H](Cc1ccccc1)NC(=O)[C@H]([C@@H](C)CC)N(CC)CC [N,N-Diethyl-Ile-Phe-ProNHEt, N,N-diethyl-isoleucyl-phenylalanyl-L-proline ethylamide]
[3]; [5]
  half-life: 4.5 h
PAMPA
  predicted absorption after peroral application (PAMPA classification): medium to highly absorbed
[4]
  solubility: 1000 µg/mL (≈ 2180 µM)

## CC[C@H](C)[C@H](NC(C)C)C(=O)N[C@H](C(=O)N1CCC[C@H]1C(N)=O)[C@@H](C)CC [N-Isopropyl-Ile-Ile-ProNH2]
PAMPA
  predicted absorption after peroral application (PAMPA classification): medium to highly absorbed

## thyreoliberin [TRH, reference compound]
Classification by flux rate
  predicted absorption after peroral application (PAMPA classification): weakly absorbed
